# Measured values published in BindingDB's records for doi:10.1021/np980173q (Kagoshima University, 1998).
# pIC50: −log10 of the molar value.
# System: Enterococcus faecalis
# Test: Antimicrobial activity against Enterococcus faecalis 12964
smiles,measurement,value
CC(=CCn1c[n+](C)c2ncnc(N)c21)CC[C@@]1(C)[C@H](C)CC[C@@]2(C)C(C)=CCC[C@H]12 [AGELASINE B],pIC50,4.86
